Laboratory results from publication PMC7159882, “Polyunsaturated fatty acid analogues differentially affect cardiac NaV, CaV, and KV channels through unique mechanisms” (eLife, 2020).

Key:
Type in all cases: cell-based
[1] = molecular target: T1, Cav1.2/β3/α2δ (Homo sapiens, UniProt Q13936); test: Two-electrode voltage clamp of Cav1.2/β3/α2δ expressed in Xenopus oocytes (Ba2+ as charge carrier); conditions: for ICa I/I0: relative current at 0 mV
T1 construct: expressed in transfected cells; host or cells: Xenopus laevis oocytes (cRNA injection, Cav1.2:β3:α2δ 2:1:1 by weight)
Method: (§1) Molecular Biology cRNA encoding Kv7.1 (UniProt: P51787), KCNE1 (UniProt: P15382.1), Nav1.5 (UniProt: Q14524.1), Nav β1 (UniProt: […]), Nav β3 (UniProt: […]), Cav1.2 (GenBank: CAA84346), Cav β3 (Uniprot: P54286), Cav β2 (Uniprot: P54288), and Cav α2δ (Uniprot: P13806) were transcribed using the mMessage mMachine T7 kit (Ambion). 50 ng of cRNA was injected into defolliculated Xenopus laevis oocytes (Ecocyte, Austin, TX): For Kv7.1/KCNE1 channel expression, we injected a 3:1, weight:weight (Kv7.1:KCNE1) cRNA ratio. For Nav1.5 channel expression, we injected a 2:1, weight:weight (Nav1.5:β1) cRNA ratio. For Cav1.2 channel expression, we injected a 2:1:1, weight:weight (Cav1.2:β3:α2δ) cRNA ratio. The exact stoichiometry for channel macromolecular complexes, including α -subunits and auxiliary subunits is not clear for many ion channels. For example, there have been multiple reported stoichiometries for Kv7.1:KCNE1 determined in heterologous expression systems with some groups reporting flexible stoichiometry of 4 Kv7.1: 1–4 KCNE1 and others reporting a fixed stoichiometry of 4 Kv7.1: 2 KCNE1 ([Murray et al., 2016]; [Nakajo et al., 2010]). The ratios of cRNA of α- and auxiliary subunits that we injected in Xenopus laevis oocytes are such that all α-subunits are assumed to be in complex with auxiliary subunits. This allows a more homogenous population of ion channels with auxiliary subunits. One caveat to expressing ion channels as macromolecular complexes is that there are many other auxiliary subunits that could associate with the channel α -subunit that are present in cardiomyocytes and have the potential to alter PUFA-induced effects, but that are not being co-expressed in our experiments. In this work, we are co-expressing some of the auxiliary subunits that have been primarily reported to associate with their respective α -subunits in cardiomyocytes. Following cRNA injection, cells were incubated for 72–96 hr in standard ND96 solution (96 mM NaCl, 2 mM KCl, 1 mM MgCl2, 1.8 mM CaCl2, 5 mM HEPES; pH = 7.5) containing 1 mM pyruvate at 16°C prior to electrophysiological recordings.
(§2) Xenopus laevis oocytes were recorded in the two-electrode voltage clamp (TEVC) configuration. Recording pipettes were filled with 3 M KCl. The recording chamber was filled with ND96 (96 mM NaCl, 2 mM KCl, 1 mM MgCl2, 1.8 mM CaCl2, 5 mM HEPES; pH 7.5). For Cav1.2/β3/α2δ channel recordings, Xenopus oocytes were injected with 50 nl of 100 mM EGTA and incubated at 10°C for 30 min prior to electrophysiological recordings in order to sequester cytosolic calcium. In addition, Cav1.2/β3/α2δ channel recordings were done in Ca^2+-free solutions, using Ba^2+ as the charge carrier, to prevent calcium-dependent inactivation of Cav1.2/β3/α2δ channels. Calcium-dependent inactivation was not studied in this work, due to the presence of large calcium-activated chloride currents present in Xenopus laevis oocytes. PUFAs were obtained from Cayman Chemical (Ann Arbor, MI.) or synthesized in house (Linköping, Sweden) through methods previously described ([Bohannon et al., 2020]) and kept at −20 °C as 100 mM stock solutions in ethanol. Serial dilutions of the different PUFAs were prepared from stocks to make 0.2 μM, 0.7 μM, 2 μM, 7 μM, and 20 μM concentrations in ND96 solutions (pH = 7.5). PUFAs were perfused into the recording chamber using the Rainin Dynamax Peristaltic Pump (Model RP-1) (Rainin Instrument Co., Oakland, CA. USA).
(§3) Electrophysiological recordings were obtained using Clampex 10.3 software (Axon, pClamp, Molecular Devices). To measure Kv7.1/KCNE1 currents we apply PUFAs as the membrane potential is stepped every 30 s from −80 mV to 0 mV for 5 s before stepping to −40 mV and back to −80 mV to ensure that the PUFA effects on the current at 0 mV reached steady state. A voltage-step protocol was used to measure the current vs. voltage (I-V) relationship before PUFA application and after the PUFA effects had reached steady state for each concentration of PUFA. […]

[2] = molecular target: T2, Kv7.1/KCNE1 (Homo sapiens, UniProt P51787); test: Two-electrode voltage clamp of Kv7.1/KCNE1 expressed in Xenopus oocytes; design: Fitted slope factor of conductance vs voltage relationship: unit of the concentration uncertain; conditions: for IKs I/I0: relative current at 0 mV
T2 construct: cRNA encoding Kv7.1 (UniProt: P51787), KCNE1 (UniProt: P15382.1); expressed in transfected cells; host or cells: Xenopus laevis oocytes (cRNA injection, Kv7.1:KCNE1 3:1 by weight)
Method: as §1
as §2, with “Serial dilutions of the different PUFAs were prepared from stocks to make 0.2 μM, 0.7 μM, 2 μM, 7 μM, and 20 μM concentrations in ND96 solutions (pH = 7.5).” left out
as §3, with “PUFA. Cells were held at −80 mV followed by a hyperpolarizing prepulse to −140 mV.” for “PUFA.”

[3] = molecular target: T3, Nav1.5/β1 (Homo sapiens, UniProt Q14524); test: Two-electrode voltage clamp of Nav1.5/β1 expressed in Xenopus oocytes; conditions: for INa I/I0: relative current at 0 mV
T3 construct: Nav1.5 (UniProt: Q14524.1); expressed in transfected cells; host or cells: Xenopus laevis oocytes (cRNA injection, Nav1.5:β1 2:1 by weight)
Method: as §1, §2, §3

T1 sequence (Q13936 1-2138 isoform Q13936-20): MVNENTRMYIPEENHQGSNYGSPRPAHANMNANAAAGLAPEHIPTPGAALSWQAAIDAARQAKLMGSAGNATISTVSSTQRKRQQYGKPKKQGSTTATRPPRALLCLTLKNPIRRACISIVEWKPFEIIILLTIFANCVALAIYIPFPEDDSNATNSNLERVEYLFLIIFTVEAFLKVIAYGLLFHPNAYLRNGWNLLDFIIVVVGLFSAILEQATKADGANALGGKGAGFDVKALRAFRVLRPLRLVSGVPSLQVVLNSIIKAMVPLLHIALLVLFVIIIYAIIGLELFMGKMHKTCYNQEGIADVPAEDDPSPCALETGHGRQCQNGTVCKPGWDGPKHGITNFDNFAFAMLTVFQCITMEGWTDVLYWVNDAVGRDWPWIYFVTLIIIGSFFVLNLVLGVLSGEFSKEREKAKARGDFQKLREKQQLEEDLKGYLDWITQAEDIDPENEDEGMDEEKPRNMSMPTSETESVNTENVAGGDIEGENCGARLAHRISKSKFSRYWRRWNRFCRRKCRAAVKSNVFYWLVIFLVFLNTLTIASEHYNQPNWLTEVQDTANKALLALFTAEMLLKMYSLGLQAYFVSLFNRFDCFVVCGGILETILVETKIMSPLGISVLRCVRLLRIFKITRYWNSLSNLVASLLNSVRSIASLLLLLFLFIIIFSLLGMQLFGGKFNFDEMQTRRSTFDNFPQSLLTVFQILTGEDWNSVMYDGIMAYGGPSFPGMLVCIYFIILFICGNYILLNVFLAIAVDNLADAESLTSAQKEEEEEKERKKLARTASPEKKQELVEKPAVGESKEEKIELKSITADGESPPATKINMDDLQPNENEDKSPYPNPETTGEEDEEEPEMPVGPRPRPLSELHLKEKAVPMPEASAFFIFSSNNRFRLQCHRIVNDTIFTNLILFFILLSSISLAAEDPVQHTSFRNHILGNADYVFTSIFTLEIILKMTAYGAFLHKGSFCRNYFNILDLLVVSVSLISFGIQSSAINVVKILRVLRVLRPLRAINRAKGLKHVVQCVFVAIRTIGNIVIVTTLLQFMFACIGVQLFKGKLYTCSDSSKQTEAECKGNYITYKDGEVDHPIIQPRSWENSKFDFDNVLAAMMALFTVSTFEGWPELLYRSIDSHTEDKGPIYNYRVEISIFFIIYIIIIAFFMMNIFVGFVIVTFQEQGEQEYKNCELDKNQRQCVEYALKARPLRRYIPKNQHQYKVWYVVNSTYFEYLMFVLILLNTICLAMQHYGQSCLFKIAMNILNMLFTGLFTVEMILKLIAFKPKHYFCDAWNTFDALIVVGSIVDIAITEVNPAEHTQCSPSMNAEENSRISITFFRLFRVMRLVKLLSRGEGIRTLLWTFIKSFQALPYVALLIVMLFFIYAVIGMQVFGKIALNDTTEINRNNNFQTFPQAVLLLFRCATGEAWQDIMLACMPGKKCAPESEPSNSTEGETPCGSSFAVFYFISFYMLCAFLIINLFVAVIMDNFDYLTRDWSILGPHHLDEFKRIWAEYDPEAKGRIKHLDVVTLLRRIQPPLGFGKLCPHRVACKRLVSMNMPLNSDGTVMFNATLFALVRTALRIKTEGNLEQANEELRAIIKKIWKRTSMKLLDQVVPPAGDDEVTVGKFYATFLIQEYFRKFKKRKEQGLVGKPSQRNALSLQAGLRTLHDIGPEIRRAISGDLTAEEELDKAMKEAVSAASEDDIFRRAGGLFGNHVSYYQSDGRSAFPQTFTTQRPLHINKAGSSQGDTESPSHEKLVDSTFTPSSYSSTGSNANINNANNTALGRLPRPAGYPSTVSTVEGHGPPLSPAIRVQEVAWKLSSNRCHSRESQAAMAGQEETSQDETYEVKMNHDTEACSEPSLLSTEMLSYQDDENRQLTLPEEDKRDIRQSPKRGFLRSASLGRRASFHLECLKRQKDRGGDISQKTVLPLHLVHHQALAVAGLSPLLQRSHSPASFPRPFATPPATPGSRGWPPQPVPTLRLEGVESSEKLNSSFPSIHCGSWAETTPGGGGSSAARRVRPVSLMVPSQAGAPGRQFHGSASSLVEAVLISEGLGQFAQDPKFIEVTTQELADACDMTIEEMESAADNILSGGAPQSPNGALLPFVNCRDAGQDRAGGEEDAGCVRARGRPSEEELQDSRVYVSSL
T1 sequence (P54286 whole entry partner): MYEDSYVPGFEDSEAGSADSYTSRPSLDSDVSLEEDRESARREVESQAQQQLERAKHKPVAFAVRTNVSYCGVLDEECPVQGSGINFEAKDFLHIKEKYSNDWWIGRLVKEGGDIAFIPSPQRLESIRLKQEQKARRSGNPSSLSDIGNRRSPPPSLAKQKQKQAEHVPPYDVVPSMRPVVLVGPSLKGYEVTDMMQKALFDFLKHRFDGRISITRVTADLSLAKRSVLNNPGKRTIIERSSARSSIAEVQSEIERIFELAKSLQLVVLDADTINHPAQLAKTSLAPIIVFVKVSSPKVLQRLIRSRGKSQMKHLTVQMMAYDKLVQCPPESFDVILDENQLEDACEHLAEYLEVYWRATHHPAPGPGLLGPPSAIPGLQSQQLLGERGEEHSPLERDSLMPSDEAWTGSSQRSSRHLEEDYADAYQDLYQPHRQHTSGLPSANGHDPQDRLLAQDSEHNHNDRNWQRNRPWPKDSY
T1 sequence (P13806 27-960 partner): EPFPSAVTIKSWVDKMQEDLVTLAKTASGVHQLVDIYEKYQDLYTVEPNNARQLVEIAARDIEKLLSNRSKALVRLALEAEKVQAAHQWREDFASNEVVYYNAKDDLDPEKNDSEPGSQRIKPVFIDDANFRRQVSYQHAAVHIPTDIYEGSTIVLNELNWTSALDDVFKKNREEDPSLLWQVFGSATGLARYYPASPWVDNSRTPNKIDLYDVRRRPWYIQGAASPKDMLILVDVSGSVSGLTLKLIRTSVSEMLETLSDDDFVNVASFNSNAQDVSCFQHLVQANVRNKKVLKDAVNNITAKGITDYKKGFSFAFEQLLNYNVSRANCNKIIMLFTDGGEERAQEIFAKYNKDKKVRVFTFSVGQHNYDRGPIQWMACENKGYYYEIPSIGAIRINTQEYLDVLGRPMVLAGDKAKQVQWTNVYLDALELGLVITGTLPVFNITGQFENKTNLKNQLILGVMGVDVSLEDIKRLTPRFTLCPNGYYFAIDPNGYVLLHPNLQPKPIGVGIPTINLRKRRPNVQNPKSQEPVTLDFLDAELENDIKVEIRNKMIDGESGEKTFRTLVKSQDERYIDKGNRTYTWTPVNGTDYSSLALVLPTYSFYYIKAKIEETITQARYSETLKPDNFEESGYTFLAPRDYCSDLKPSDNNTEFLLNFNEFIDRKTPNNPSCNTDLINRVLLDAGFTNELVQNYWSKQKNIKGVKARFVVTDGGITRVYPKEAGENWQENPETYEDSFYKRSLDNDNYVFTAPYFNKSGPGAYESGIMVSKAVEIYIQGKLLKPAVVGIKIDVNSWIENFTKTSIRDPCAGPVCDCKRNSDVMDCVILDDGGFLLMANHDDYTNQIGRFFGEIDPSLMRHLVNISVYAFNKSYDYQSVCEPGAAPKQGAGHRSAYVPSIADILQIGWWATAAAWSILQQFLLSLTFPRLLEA
T1 sequence (P13806 961-1106 partner): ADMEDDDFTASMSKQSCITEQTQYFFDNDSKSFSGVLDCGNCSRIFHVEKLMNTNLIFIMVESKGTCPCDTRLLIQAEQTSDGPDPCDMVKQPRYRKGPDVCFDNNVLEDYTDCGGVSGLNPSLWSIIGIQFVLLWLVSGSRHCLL

Fitted slope factor of conductance vs voltage relationship ([2]; 0.2 μM): 18.7 ± 1.1 mV
Gmax/Gmax0 ([2]; 0.2 μM): 1.1 ± 0.04
ΔV0.5 (voltage dependence of activation) ([2]; 0.2 μM): -1.5 ± 0.4 mV
IKs I/I0 ([2]; 0.2 μM): 1.1 ± 0.03
Fitted slope factor of conductance vs voltage relationship ([2]; 0.7 μM): 18.6 ± 1.2 mV
Gmax/Gmax0 ([2]; 0.7 μM): 1.3 ± 0.1
ΔV0.5 (voltage dependence of activation) ([2]; 0.7 μM): -5.0 ± 1.7 mV
IKs I/I0 ([2]; 0.7 μM): 1.4 ± 0.08
Fitted slope factor of conductance vs voltage relationship ([2]; 2 μM): 18.6 ± 1.3 mV
Gmax/Gmax0 ([2]; 2 μM): 1.6 ± 0.2
ΔV0.5 (voltage dependence of activation) ([2]; 2 μM): -17.5 ± 2.0 mV
IKs I/I0 ([2]; 2 μM): 2.9 ± 0.5
Fitted slope factor of conductance vs voltage relationship ([2]; 7 μM): 18.1 ± 1.2 mV
Gmax/Gmax0 ([2]; 7 μM): 1.7 ± 0.1
ΔV0.5 (voltage dependence of activation) ([2]; 7 μM): −45.3 ± 2.9 mV
Gmax/Gmax0 ([2]; 20 μM): 1.1 ± 0.9
ΔV0.5 (voltage dependence of activation) ([2]; 20 μM): -70.5 ± 6.0 mV
IKs I/I0 ([2]; 20 μM): 3.1 ± 0.4
SMILES: CC/C=C\C/C=C\C/C=C\C/C=C\C/C=C\C/C=C\CCC(=O)NCCS(=O)(=O)O [DHA-taurine]
Gmax/Gmax0 ([1]; 0.2 μM): 1.0 ± 0.05
ΔV0.5 (voltage dependence of inactivation) ([1]; 0.2 μM): 1.7 ± 0.7 mV
ICa I/I0 ([1]; 0.2 μM): 0.9 ± 0.04
Gmax/Gmax0 ([1]; 0.7 μM): 1.1 ± 0.1
ΔV0.5 (voltage dependence of inactivation) ([1]; 0.7 μM): 1.6 ± 0.8 mV
ICa I/I0 ([1]; 0.7 μM): 1.0 ± 0.03
Gmax/Gmax0 ([1]; 2 μM): 1.1 ± 0.07
ΔV0.5 (voltage dependence of inactivation) ([1]; 2 μM): 1.7 ± 1.0 mV
ICa I/I0 ([1]; 2 μM): 1.0 ± 0.03
Gmax/Gmax0 ([1]; 7 μM): 1.1 ± 0.1
ΔV0.5 (voltage dependence of inactivation) ([1]; 7 μM): 0.2 ± 0.8 mV
Gmax/Gmax0 ([1]; 20 μM): 0.8 ± 0.1
ΔV0.5 (voltage dependence of inactivation) ([1]; 20 μM): -3.8 ± 0.9 mV
ICa I/I0 ([1]; 20 μM): 0.7 ± 0.1
Gmax/Gmax0 ([3]; 0.2 μM): 1.0 ± 0.01
ΔV0.5 (voltage dependence of inactivation) ([3]; 0.2 μM): -0.5 ± 0.3 mV
INa I/I0 ([3]; 0.2 μM): 1.0 ± 0.03
Gmax/Gmax0 ([3]; 0.7 μM): 0.9 ± 0.01
ΔV0.5 (voltage dependence of inactivation) ([3]; 0.7 μM): -2.6 ± 0.5 mV
INa I/I0 ([3]; 0.7 μM): 1.0 ± 0.03
Gmax/Gmax0 ([3]; 2 μM): 0.6 ± 0.03
ΔV0.5 (voltage dependence of inactivation) ([3]; 2 μM): -9.4 ± 1.6 mV
INa I/I0 ([3]; 2 μM): 0.7 ± 0.04
Gmax/Gmax0 ([3]; 7 μM): 0.1 ± 0.01
ΔV0.5 (voltage dependence of inactivation) ([3]; 7 μM): −28.5 ± 0.6 mV
Gmax/Gmax0 ([3]; 20 μM): 0.04 ± 0.01
ΔV0.5 (voltage dependence of inactivation) ([3]; 20 μM): -63.2 ± 10.9 mV
INa I/I0 ([3]; 20 μM): 0.1 ± 0.03
